Read-outs that look alike come from different tables or passages of the source.

For one data set, the system named is HSV-1. The data set can be described thus: HSV-1 antiviral assay, cytopathic effect (CPE) inhibition in vero cells. The class given is cell-based. The following applies: 4 days, read-out: in vitro EC50 against HSV-1. Here is the method:
(§1) Cytopathic Effect (CPE) Inhibition Assay
(§2) Cell culture—vero cells were cultured in Dulbecco's Modified Eagle Medium (DMEM) supplemented with 10% fetal bovine serum and 100 units/mL penicillin and streptomycin. The cells were passaged 2-3 times per week to maintain sub-confluent densities.
HSV-1 antiviral assay—vero cells were seeded into 96-well plates at a density of 2.5×10^3 cells per well and allowed to attach overnight. Following attachment, the media was replaced with 50 μL of infection medium (DMEM supplemented with 2% fetal bovine serum and 100 units/mL penicillin and streptomycin). A Tecan D300e digital dispenser was then used to add compounds to the culture using an 8-point 3-fold serial dilution format. The DMSO concentration was normalized to 0.5% for all treatments. Following compound addition, 50 μL of infection medium containing 80 TCID50 HSV-1 was added to the cells and incubated at 37° C. for 4 days. After the incubation, the plates were equilibrated to room temperature, the media was removed, and 60 μL of a 1:1 dilution of Cell titer glow and phosphate buffered saline was added to the cells. Following a 5-minute incubation, cell viability was quantified by measuring luminance using a Tecan Infinite M1000 Pro plate reader.
(§3) Vero cells were cultured in Dulbecco's Modified Eagle Medium (DMEM) supplemented with 10% foetal bovine serum and 100 units/mL penicillin and streptomycin. The cells were passaged 2-3 times per week to maintain sub-confluent densities.
Vero cells were seeded into 96-well plates at a density of 2.5×10^3 cells per well and allowed to attach overnight. Following attachment, the media was replaced with 50 μL of infection medium (DMEM supplemented with 2% foetal bovine serum and 100 units/mL penicillin and streptomycin). A Tecan D300e digital dispenser was then used to add compounds to the culture using an 8-point 3-fold serial dilution format. The DMSO concentration was normalized to 0.5% for all treatments. […] Following a 5-minute incubation, cell viability was quantified by measuring luminance using a Tecan Infinite M1000 Pro plate reader.

For the next data set, the system named is HSV-2 G strain. The data set can be described thus: HSV-2 antiviral assay, cytopathic effect (CPE) inhibition in vero cells. The class given is cell-based. Here is the method:
as §1, §2
(§4) HSV-2 antiviral assay—vero cells were seeded into 96-well plates at a density of 1.0×10^4 cells per well and allowed to attach overnight. Following attachment, the media was replaced with 50 μL of infection medium (DMEM supplemented with 2% fetal bovine serum and 100 units/mL penicillin and streptomycin). A Tecan D300e digital dispenser was then used to add compounds to the culture using an 8-point 3-fold serial dilution format. The DMSO concentration was normalized to 0.5% for all treatments. Following compound addition, 50 μL of infection medium containing 160 TCID50 HSV-2 G strain was added to the cells and incubated at 37° C. for 5 days. After the incubation, 10 μL/well of WST-8 chromogenic reagent was added and the plates incubated at 37° C. for 3 hours. Following the incubation, cell viability was quantified by measuring the absorbance at 460 nm and 620 nm using a Tecan Infinite M1000 Pro plate reader.
as §3
as §4, with “Vero” for “HSV-2 antiviral assay—vero”, “foetal” for “fetal”

A short description of data set [1]: Example 7: Compound 1 aqueous suspension SC PK study in monkey. It counts as in vivo, male cynomolgus monkeys. The following applies: aqueous suspension (Form A), 10 mg/kg. Here is the method:
The LC-MS methodology and conditions used to analyse the helicase-primase inhibitor Compound 1 in plasma samples from the sub-cutaneous injection PK studies (Examples 7 and 10-12) are described in Table 3 and Table 4. An aqueous suspension of crystalline Compound 1 (Form A) was prepared in a 0.9% NaCl+0.5% polysorbate 80 vehicle at a concentration of 3.0 mg/mL as described in Example 3. The suspension was then dosed to male cyno monkeys at 10 mg/kg according to the Example 3 animal dosing method.

The nature of data set [2]: Example 7: Compound 1 aqueous suspension SC PK study in dog. It counts as in vivo, male non-naïve Beagle dogs. To be noted: aqueous suspension (Form A), 10 mg/kg. The protocol: The LC-MS methodology and conditions used to analyse the helicase-primase inhibitor Compound 1 in plasma samples from the sub-cutaneous injection PK studies (Examples 7 and 10-12) are described in Table 3 and Table 4. An aqueous suspension of crystalline Compound 1 (Form A) was prepared in a 0.9% NaCl+0.5% poloxamer 188 vehicle at a concentration of 5.0 mg/mL as described in Example 4. The suspension was then dosed to male non-naïve beagle dogs at 10 mg/kg according to the Example 4 animal dosing method.

The nature of data set [3]: Example 11: Compound 1 (Form A) aqueous suspension SC PK study in monkey. The class given is in vivo, male cynomolgus monkeys. The following applies: 10 mg/kg, following an initial drug burst. Here is the method:
An aqueous suspension of Compound 1 free form (Form A) in a 0.9% NaCl+0.5% polysorbate 80 vehicle at a concentration of 3.0 mg/mL was prepared as follows: • 1) Vehicle (0.9% w/w NaCl and 0.5% w/w polysorbate 80) was prepared by dissolving NaCl and polysorbate 80 in water. • 2) Appropriate amount of Compound 1 was weighed and added to the vehicle. • 3) The mixture was stirred for 15 minutes, then vortexed for 1 minute and then sonicated for 10 minutes. • 4) The final dosing formulation was a homogenous white cloudy suspension.
Male non-naïve Cyno Monkeys with ~4-6 kg body weight were used for the monkey PK study. The animals had free access to food and water. The prepared suspension was administered via subcutaneous injection to each animal group (n=3) with a dosing volume of 3.33 mL/kg to achieve a 10 mg/kg dose.
At each time point, approximately 0.5 mL whole blood was collected via the cephalic and saphenous vein into K2EDTA tubes. Blood samples were put on to ice and centrifuged at 2000 g for 5 min to obtain plasma sample within 15 minutes. Plasma samples were stored at approximately −70° C. until analyzed by LC-MS.

The conditions of data set [4]: Wald et al. (2014); cited from earlier work.
Where [5] appears, read: Human alphaherpesvirus 1, Vero, 96 h.
Setting [6] is: Human alphaherpesvirus 2, Vero, 120 h, CPE assay, vero cells, 5 days, read-out: in vitro EC50 against HSV-2.

As to `Cc1nc(N2CCCN(c3ccc(-c4cc(F)ccc4F)cc3)C2=O)sc1S(N)(=O)=O` [Compound 1, 2-(3-(2′,5′-difluoro-[1,1′-biphenyl]-4-yl)-2-oxotetrahydropyrimidin-1(2H)-yl)-4-methylthiazole-5-sulfonamide], the EC50 is 0.015 µM with HSV-1; roughly 0.019 µM with HSV-1 (setting [5]); 0.013 µM in the data set on HSV-2 G strain (CPE assay, vero cells, 5 days, read-out: in vitro EC50 against HSV-2); roughly 0.011 µM in the data set on HSV-2 G strain (setting [6]); 0.011 µM in the data set on HSV-2 G strain (Human alphaherpesvirus 2, Vero, Example 9, n=35, read-out: EC50 in the HSV-2 antiviral assay). Moreover, the “prolonged exposure out to (length of the study)” value in data set [1] and in data set [2] was “at least 1392 hours” each time. Further, the “prolonged exposure out to” value in data set [3] is given as “at least 220 days”.

With `Cc1nc(N(C)C(=O)Cc2ccc(-c3ccccn3)cc2)sc1S(N)(=O)=O` [pritelivir, N-methyl-N-(4-methyl-5-sulfamoyl-1,3-thiazol-2-yl)-2-[4-(pyridin-2-yl)phenyl]acetamide], the results for the EC50 in the data set on HSV-1 (setting [5]) and in the data set on HSV-2 G strain (setting [6]) were 0.047 µM and 0.055 µM, respectively. Besides, in data set [4], the “human biological terminal half-life” value is on record as “up to 80 hours”.
